Like-named read-outs stand apart in the source and are kept apart here.
Legend:
[1] = test system: Methicillin-Susceptible Staphylococcus aureus Isolates; assay: MIC assay (NCCLS broth dilution), MSSA clinical isolates; format: cell-based; conditions: for MIC: read-out: Minimal Inhibitory Concentration
Experimental: (§1) Antibiotics: novobiocin, tetracycline, minocycline, oxacillin, and vancomycin were all purchased from Sigma-Aldrich. Linezolid was obtained from Pfizer, Inc. Novobiocin/tetracycline and novobiocin/minocycline were tested in a 2.5:1 ratio to mimic the serum levels. (Vavra, J. J., 1967, Development of resistance to novobiocin, tetracycline, and novobiocin-tetracycline combinations in Staphylococcus aureus populations, J. Bacteriol 93(3):801). Compounds were tested across a concentration range consisting of 11 two-fold serial dilutions of test agent.
(§2) Stock solutions were prepared in sterile deionized water; novobiocin stock concentration was 1600 μg/mL and all other drugs stock solutions were prepared at 640 μg/mL. The stock solutions were allowed to sit at room temperature for one hour to auto-sterilize prior to use in the test. All compounds were in solution in water. The control agent was vancomycin hydrochloride, Sigma Chemical Lot # 015K0825.
(§3) The test organisms for the assay were 52 MSSA, 52 MRSA, 8 VISA, 7 VISE, and 3 LRSA isolates. Quality control strains included Staphylococcus aureus 0100 (ATCC 29213) and Enterococcus faecalis (ATCC 29212).
(§4) The MIC assay was performed according to published NCCLS guidelines. (National Committee for Clinical Laboratory Standards, Methods for Dilution Antimicrobial Susceptibility Tests for Bacteria that Grow Aerobically; Approved Standard-Sixth Edition, NCCLS Document M7-A6 [ISBN 1-56238-486-4], NCCLS, 940 West Valley Road, Suite 1400, Wayne, Pa. 19087-1898 USA, 2003). The test medium was Mueller Hinton II Broth for all organisms.

[2] = test system: Methicillin-Resistant Staphylococcus aureus Isolates; assay: MIC assay (NCCLS broth dilution), MRSA clinical isolates; format: cell-based; conditions: for MIC: Staphylococcus aureus, read-out: Minimal Inhibitory Concentration
Experimental: as §1, §2, §3, §4

[3] = Staphylococcus aureus, 52 MSSA isolates, combinations at 2.5:1, given as NB/partner

Structure (SMILES): CC(=O)NC[C@H]1CN(c2ccc(N3CCOCC3)c(F)c2)C(=O)O1 [LZD, linezolid]
- MIC Range ([1]; 52 MSSA isolates, Mueller Hinton II Broth, combinations at 2.5:1, given as NB/partner): 1 to 4 µg/mL
- MIC ([1]; Staphylococcus aureus, MSSA isolate 133, 03MAR06): 2 µg/mL
- MIC ([1]; Staphylococcus aureus, MSSA isolate 134, 03MAR06): 2 µg/mL
- MIC ([1]; Staphylococcus aureus, MSSA isolate 135, 03MAR06): 4 µg/mL
- MIC ([1]; Staphylococcus aureus, MSSA isolate 753, 22FEB06): 2 µg/mL
- MIC ([1]; Staphylococcus aureus, MSSA isolate 754, 22FEB06): 4 µg/mL
- MIC ([1]; Staphylococcus aureus, MSSA isolate 754, 24FEB06): 4 µg/mL
- MIC ([1]; Staphylococcus aureus, MSSA isolate 755, 22FEB06): 2 µg/mL
- MIC ([1]; Staphylococcus aureus, MSSA isolate 756, 03MAR06): 2 µg/mL
- MIC ([1]; Staphylococcus aureus, MSSA isolate 779, 22FEB06): 2 µg/mL
- MIC ([1]; Staphylococcus aureus, MSSA isolate 780, 03MAR06): 4 µg/mL
- MIC ([1]; Staphylococcus aureus, MSSA isolate 781, 03MAR06): 2 µg/mL
- MIC ([1]; Staphylococcus aureus, MSSA isolate 782, 22FEB06): 2 µg/mL
- MIC ([1]; Staphylococcus aureus, MSSA isolate 783, 22FEB06): 2 µg/mL
- MIC ([1]; Staphylococcus aureus, MSSA isolate 784, 22FEB06): 2 µg/mL
- MIC ([1]; Staphylococcus aureus, MSSA isolate 785, 22FEB06): 2 µg/mL
- MIC ([1]; Staphylococcus aureus, MSSA isolate 786, 22FEB06): 4 µg/mL
- MIC ([1]; Staphylococcus aureus, MSSA isolate 787, 22FEB06): 2 µg/mL
- MIC ([1]; Staphylococcus aureus, MSSA isolate 788, 22FEB06): 2 µg/mL
- MIC ([1]; Staphylococcus aureus, MSSA isolate 789, 24FEB06): 4 µg/mL
- MIC ([1]; Staphylococcus aureus, MSSA isolate 790, 24FEB06): 4 µg/mL
- MIC ([1]; Staphylococcus aureus, MSSA isolate 791, 24FEB06): 2 µg/mL
- MIC ([1]; Staphylococcus aureus, MSSA isolate 792, 03MAR06): 2 µg/mL
- MIC ([1]; Staphylococcus aureus, MSSA isolate 793, 24FEB06): 4 µg/mL
- MIC ([1]; Staphylococcus aureus, MSSA isolate 794, 24FEB06): 4 µg/mL
- MIC ([1]; Staphylococcus aureus, MSSA isolate 994, 22FEB06): 2 µg/mL
- MIC ([1]; Staphylococcus aureus, MSSA isolate 995, 03MAR06): 2 µg/mL
- MIC ([1]; Staphylococcus aureus, MSSA isolate 996, 22FEB06): 2 µg/mL
- MIC ([1]; Staphylococcus aureus, MSSA isolate 997, 22FEB06): 2 µg/mL
- MIC ([1]; Staphylococcus aureus, MSSA isolate 998, 03MAR06): 2 µg/mL
- MIC ([1]; Staphylococcus aureus, MSSA isolate 999, 22FEB06): 2 µg/mL
- MIC ([1]; Staphylococcus aureus, MSSA isolate 1000, 24FEB06): 2 µg/mL
- MIC ([1]; Staphylococcus aureus, MSSA isolate 1001, 24FEB06): 2 µg/mL
- MIC ([1]; Staphylococcus aureus, MSSA isolate 1002, 24FEB06): 2 µg/mL
- MIC ([1]; Staphylococcus aureus, MSSA isolate 1003, 03MAR06): 2 µg/mL
- MIC ([1]; Staphylococcus aureus, MSSA isolate 1005, 24FEB06): 2 µg/mL
- MIC ([1]; Staphylococcus aureus, MSSA isolate 1006, 24FEB06): 2 µg/mL
- MIC ([1]; Staphylococcus aureus, MSSA isolate 1007, 24FEB06): 4 µg/mL
- MIC ([1]; Staphylococcus aureus, MSSA isolate 1008, 24FEB06): 2 µg/mL
- MIC ([1]; Staphylococcus aureus, MSSA isolate 1009, 24FEB06): 4 µg/mL
- MIC ([1]; Staphylococcus aureus, MSSA isolate 1131, 24FEB06): 2 µg/mL
- MIC ([1]; Staphylococcus aureus, MSSA isolate 1132, 03MAR06): 2 µg/mL
- MIC ([1]; Staphylococcus aureus, MSSA isolate 1133, 24FEB06): 2 µg/mL
- MIC ([1]; Staphylococcus aureus, MSSA isolate 1134, 24FEB06): 2 µg/mL
- MIC ([1]; Staphylococcus aureus, MSSA isolate 1654, 03MAR06): 2 µg/mL
- MIC ([1]; Staphylococcus aureus, MSSA isolate 1656, 03MAR06): 2 µg/mL
- MIC ([1]; Staphylococcus aureus, MSSA isolate 1662, 03MAR06): 2 µg/mL
- MIC ([1]; Staphylococcus aureus, MSSA isolate 1663, 03MAR06): 4 µg/mL
- MIC ([1]; Staphylococcus aureus, MSSA isolate 1666, 03MAR06): 4 µg/mL
- MIC ([1]; Staphylococcus aureus, MSSA isolate 1667, 03MAR06): 4 µg/mL
- MIC ([1]; Staphylococcus aureus, MSSA isolate 1668, 03MAR06): 4 µg/mL
- MIC ([1]; Staphylococcus aureus, MSSA isolate 1671, 03MAR06): 2 µg/mL
- MIC ([1]; Staphylococcus aureus, MSSA isolate 1728, 03MAR06): 1 µg/mL
- MIC ([1]; Staphylococcus aureus, MSSA isolate 1728, retest 09MAR06): 1 µg/mL
- MIC50 [1, 3]: 2 µg/mL
- MIC90 [1, 3]: 4 µg/mL
- MIC Range ([2]; 52 MRSA isolates, combinations at 2.5:1, given as NB/partner): 2 to 4 µg/mL
- MIC ([2]; MRSA isolate 757, 24FEB06): 4 µg/mL
- MIC ([2]; MRSA isolate 758, 03MAR06): 4 µg/mL
- MIC ([2]; MRSA isolate 758, 24FEB06): 4 µg/mL
- MIC ([2]; MRSA isolate 760, 03MAR06): 2 µg/mL
- MIC ([2]; MRSA isolate 760, 24FEB06): 4 µg/mL
- MIC ([2]; MRSA isolate 763, 22FEB06): 4 µg/mL

— US20070281992A1, “COMBINATION OF GYRASE B INHIBITORS AND PROTEIN SYNTHESIS INHIBITORS AND USES THEREOF” (priority 2006, published 2007)
